Data on four compounds can be found in patent US6878742B2, “Heterocyclic sulfonamide inhibitors of beta amyloid production” (Wyeth, priority 2000, dated 2005).

The subject of data set [1] is amyloid precursor protein (APP) proteolysis. Nature of the data set: Repressor Release Assay (RRA). It is filed as cell-based. The note with it: Conc 20 μg/mL; luciferase activity over diluent control; read-out: APPI Fold Increase. Summed up:
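CHO-K1 cells grown in DMEM with 10% fetal bovine serum were transiently co-transfected with pRSVO-luc and APP-lacI constructs via Lipofectamine Plus, plated into opaque 96-well plates, and exposed to diluted compound in duplicate for 36-48 hours at 37° C. LucLite luciferase signal was read on a TopCount and expressed as fold increase in relative light units over Hepes/DMSO diluent control.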

`CCC(CC)[C@H](NS(=O)(=O)c1ccc(Cl)s1)C(C)O` (stereo partly drawn) [Example 222, 5-Chloro-N-[(S)-2-ethyl-1-(1-hydroxyethyl)butyl]thiophene-2-sulfonamide]: the melting point (commonly the temperature, or range, at which the solid turns liquid) lay within 95 to 98 °C. Also, the fold induction at 20 µg/mL in data set [1] was 7.2.
For `O=S(=O)(NC(CO)C1CCSCC1)c1ccc(Cl)s1` (stereo not drawn) [Example 224, 5-Chloro-N-(2-hydroxy-1-tetrahydro-H-thiopyran-4-ylethyl)thiophene-2-sulfonamide], in that order: 108 to 110 °C and 7.2.
As to `CC[C@H](C)[C@@H](/C=N\O)NS(=O)(=O)c1ccc(Cl)s1` [Example 229], the fold induction at 20 µg/mL in data set [1] was determined as 6.3.
The same measure, in the same setting: under `CC[C@H](C)[C@@H](/C=N/O)NS(=O)(=O)c1ccc(Cl)s1` [Example 230] stands 4.8.
